From ChEMBL document CHEMBL4834462, “Naphtho-γ-pyrone Dimers from an Endozoic Aspergillus niger and the Effects of Coisolated Monomers in Combination with Cisplatin on a Cisplatin-Resistant A549 Cell Line” (J Nat Prod, 2021)
Each block holds one compound with its values, some of them ahead of it. Calls of active or inactive are those of the source. The calls are words filed in the database; no cut-off is given here.

Legend:
A549 [1] = assay: Anticancer activity against cisplatin-resistant human A549 cells assessed as reduction in cell viability measured after 48 hrs in presence of cisplatin by MTT assay; assay type: functional, cell-based; conditions: A549, 48 h
A549 [2] = assay: Synergistic antiproliferative activity against cisplatin-resistant human A549 cells assessed as combination index at 10 uM incubated for 48 hrs in presence of 1.5 uM cisplatin by MTT assay; assay type: functional
A549 [3] = assay: Synergistic antiproliferative activity against cisplatin-resistant human A549 cells assessed as combination index at 10 uM incubated for 48 hrs in presence of 3 uM cisplatin by MTT assay; assay type: functional
A549 [4] = assay: Synergistic antiproliferative activity against cisplatin-resistant human A549 cells assessed as combination index at 10 uM incubated for 48 hrs in presence of 4.5 uM cisplatin by MTT assay; assay type: functional
A549 [5] = assay: Synergistic antiproliferative activity against cisplatin-resistant human A549 cells assessed as combination index at 15 uM incubated for 48 hrs in presence of 1.5 uM cisplatin by MTT assay; assay type: functional
A549 [6] = assay: Synergistic antiproliferative activity against cisplatin-resistant human A549 cells assessed as combination index at 15 uM incubated for 48 hrs in presence of 3 uM cisplatin by MTT assay; assay type: functional
A549 [7] = assay: Synergistic antiproliferative activity against cisplatin-resistant human A549 cells assessed as combination index at 15 uM incubated for 48 hrs in presence of 4.5 uM cisplatin by MTT assay; assay type: functional
A549 [8] = assay: Synergistic antiproliferative activity against cisplatin-resistant human A549 cells assessed as combination index at 20 uM incubated for 48 hrs in presence of 1.5 uM cisplatin by MTT assay; assay type: functional
A549 [9] = assay: Synergistic antiproliferative activity against cisplatin-resistant human A549 cells assessed as combination index at 20 uM incubated for 48 hrs in presence of 3 uM cisplatin by MTT assay; assay type: functional
A549 [10] = assay: Synergistic antiproliferative activity against cisplatin-resistant human A549 cells assessed as combination index at 20 uM incubated for 48 hrs in presence of 4.5 uM cisplatin by MTT assay; assay type: functional
A549 [11] = assay: Inhibition of redox balance in cisplatin-resistant human A549 cells assessed as reduction in ratio of GSH/GSSG measured after 24 hrs; assay type: functional, cell-based; conditions: dose 10-20 µM
A549 [12] = assay: Induction of intracellular ROS generation in cisplatin-resistant human A549 cells measured after 24 hrs by DCFH-DA staining based laser scanning confocal microscopy; assay type: functional, cell-based; conditions: dose 10-20 µM
A549 [13] = assay: Induction of apoptosis in cisplatin-resistant human A549 cells assessed as viable cells at 10 uM incubated for 24 hrs by AnnexinV-FITC/PI staining based flow cytometry (reference value: 86.5%); assay type: functional; conditions: read-out: Activity
A549 [14] = assay: Induction of apoptosis in cisplatin-resistant human A549 cells assessed as early apoptotic cells at 10 uM incubated for 24 hrs by AnnexinV-FITC/PI staining based flow cytometry (reference value: 2.17%); assay type: functional
A549 [15] = assay: Induction of apoptosis in cisplatin-resistant human A549 cells assessed as late apoptotic cells at 10 uM incubated for 24 hrs by AnnexinV-FITC/PI staining based flow cytometry (reference value: 10.8%); assay type: functional
A549 [16] = assay: Induction of apoptosis in cisplatin-resistant human A549 cells assessed as necrotic cells at 10 uM incubated for 24 hrs by AnnexinV-FITC/PI staining based flow cytometry (reference value: 0.53%); assay type: functional
A549 [17] = assay: Induction of apoptosis in cisplatin-resistant human A549 cells assessed as viable cells at 20 uM incubated for 24 hrs by AnnexinV-FITC/PI staining based flow cytometry (reference value: 86.5%); assay type: functional; conditions: read-out: Activity
A549 [18] = assay: Induction of apoptosis in cisplatin-resistant human A549 cells assessed as early apoptotic cells at 20 uM incubated for 24 hrs by AnnexinV-FITC/PI staining based flow cytometry (reference value: 2.17%); assay type: functional
A549 [19] = assay: Induction of apoptosis in cisplatin-resistant human A549 cells assessed as late apoptotic cells at 20 uM incubated for 24 hrs by AnnexinV-FITC/PI staining based flow cytometry (reference value: 10.8%); assay type: functional
A549 [20] = assay: Induction of apoptosis in cisplatin-resistant human A549 cells assessed as necrotic cells at 20 uM incubated for 24 hrs by AnnexinV-FITC/PI staining based flow cytometry (reference value: 0.53%); assay type: functional
A549 [21] = assay: Downregulation of HO-1 protein expression in cisplatin-resistant human A549 cells at 15 uM incubated for 48 hrs in presence of cisplatin by western blot analysis; assay type: functional, cell-based
A549 [22] = assay: Downregulation of NQO-1 protein expression in cisplatin-resistant human A549 cells at 15 uM incubated for 48 hrs in presence of cisplatin by western blot analysis; assay type: functional, cell-based
A549 [23] = assay: Downregulation of AKT protein expression in cisplatin-resistant human A549 cells at 15 uM incubated for 48 hrs in presence of cisplatin by western blot analysis; assay type: functional, cell-based
A549 [24] = assay: Downregulation of Nrf2 protein expression in cisplatin-resistant human A549 cells at 15 uM incubated for 48 hrs in presence of cisplatin by western blot analysis; assay type: functional, cell-based
A549 [25] = assay: Downregulation of HO-1 protein expression in cisplatin-resistant human A549 cells at 15 uM incubated for 48 hrs by western blot analysis; assay type: functional, cell-based

Structure (SMILES): COc1cc(OC)c2c(O)c3c(=O)cc(C)oc3cc2c1 [RUBROFUSARIN B]
IC50 (A549 [1]): > 20 µM

Structure (SMILES): COc1cc(OC)c2c(O)c3c(=O)cc(C)oc3c(-c3c(O)cc4cc(O)c5c(=O)cc(C)oc5c4c3OC)c2c1 [ASPERPYRONE A]
IC50 (A549 [1]): > 20 µM

Structure (SMILES): O=C1C=C2O[C@H]3CC(=O)c4c(O)cc(O)cc4C3=C2c2cc(O)cc(O)c21
IC50 (A549 [1]): > 20 µM

Structure (SMILES): COc1cc(OC)c2c(O)c3c(=O)cc(C)oc3c(-c3c(OC)cc4cc(O)c5c(=O)cc(C)oc5c4c3OC)c2c1 [FONSECINONE A]
IC50 (A549 [1]): > 20 µM

Structure (SMILES): COc1cc(OC)c2c(c1)c(-c1c(OC)cc3cc4oc(C)cc(=O)c4c(O)c3c1OC)c(O)c1c(=O)cc(C)oc12 [ASPERPYRONE C]
IC50 (A549 [1]): > 20 µM

More lines, main results first:

IC50 (A549 [1]): > 20 µM
Structure (SMILES): COc1cc(OC)c2c(O)c3c(c(-c4c(OC)cc5cc(O)c6c(=O)cc(C)oc6c5c4OC)c2c1)O[C@](C)(O)CC3=O

IC50 (A549 [1]): > 20 µM
Structure (SMILES): COc1cc(O)cc2cc3oc(C)cc(=O)c3c(O)c12

IC50 (A549 [1]): > 20 µM
Structure (SMILES): COc1cc(O)cc2cc(O)c3c(=O)cc(C)oc3c12
CI (A549 [2]): 1.95
CI (A549 [3]): 0.95
CI (A549 [4]): 0.83
CI (A549 [5]): 0.75
CI (A549 [6]): 0.72
CI (A549 [7]): 0.79
CI (A549 [8]): 0.76
CI (A549 [9]): 0.76
CI (A549 [10]): 0.81
inhibition (A549 [11]): Dose-Dependent Effect
Activity (A549 [12]): Dose-Dependent Effect
viability at 10 µM (A549 [13]): 72.6%
Activity (A549 [14]): 2.87%
Activity (A549 [15]): 23.6%
Activity (A549 [16]): 0.9%
viability at 20 µM (A549 [17]): 53.3%
Activity (A549 [18]): 4.05%
Activity (A549 [19]): 41.3%
Activity (A549 [20]): 1.34%
inhibition (A549 [21]): Active
inhibition (A549 [22]): Active
inhibition (A549 [23]): Active
inhibition (A549 [24]): Active
inhibition (A549 [25]): Active

IC50 (A549 [1]): > 20 µM
Structure (SMILES): COc1cc(OC)c2c(c1)c(-c1c(O)cc3cc4oc(C)cc(=O)c4c(O)c3c1OC)c(O)c1c(=O)cc(C)oc12

IC50 (A549 [1]): > 20 µM
Structure (SMILES): COc1cc(OC)c2c(c1)c(-c1c(OC)cc3cc(O)c4c(=O)cc(C)oc4c3c1OC)c(O)c1c(=O)cc(C)oc12

IC50 (A549 [1]): > 20 µM
Structure (SMILES): COc1cc(OC)c2c(O)c3c(=O)cc(C)oc3c(-c3c(OC)cc4cc5oc(C)cc(=O)c5c(O)c4c3OC)c2c1 [AURASPERONE A]

IC50 (A549 [1]): > 20 µM
Structure (SMILES): COc1cc(OC)c2c(O)c3c(=O)cc(C)oc3c(-c3c(O)cc4cc5oc(C)cc(=O)c5c(O)c4c3OC)c2c1
